The source of these data is US20190015383A1, “CANNABINOID COMPOSITIONS AND METHODS OF PREPARATION THEREOF” (5071, Inc., priority 2017, published 2019).

The data set can be described thus: Water solubility testing (solubility time in water). The class given is physicochemical. The conditions noted are these: 10 mg sample in 240 mL water, magnetic stirring. The procedure:
Water solubility testing was performed for Compositions C, D1, D2, and E described in Examples 3, 4, and 6. Each composition was tested at temperatures of 22° C. (tap water) and 10° C. (iced tap water). For each test, 240 mL of water at the target temperature (22° C. or 10° C.) was added to a beaker and a magnetic stirrer used with medium agitation, creating a slight vortex. A 10 mg sample of the composition to be tested was added over a 1-2 second time period and allowed to mix. The time in seconds until no particulates were visually discernable (either suspended in solution or settled out) was recorded as the solubility time. The solubility of table sugar (i.e., granulated sucrose) was also tested according to the same procedure for comparison.
The following categories were used to assess solubility characteristics: <30 sec=excellent to good solubility, 1-3 min=fair solubility, 3-5 min=poor solubility, and >5 min=insoluble.

As to `OC[C@H]1O[C@@](CO)(O[C@H]2O[C@H](CO)[C@@H](O)[C@H](O)[C@H]2O)[C@@H](O)[C@@H]1O` [Table sugar, sucrose], the Solubility time by setting is: (10° C. (iced tap water)) below 60 s; (22° C. (tap water)) 22 s.
